Assay results: US20250099458A1, “USE OF ANTI-IDIOPATHIC PULMONARY FIBROSIS DRUG NINTEDANIB IN TREATMENT OF TUBERCULOSIS” (Beijing Chest Hospital, Capital Medical University, priority 2022, published 2025)

Legend:
[1] = test system: H37Rv strain; experiment: In vitro activity on Mycobacterium tuberculosis (Alamar Blue MIC); format: cell-based; conditions: H37Rv standard strain, 7H9 medium, 37° C. 7 d, Alamar Blue 24 h
[2] = test system: H37Rv in J774A.1 macrophages; experiment: Macrophage intracellular bactericidal activity; format: cell-based, Mycobacterium tuberculosis; conditions: for CFU / log10 CFU: J774A.1, 72 h
Protocol: The macrophage intracellular bactericidal activity is used to evaluate the anti-tuberculosis activities of BIBF1120 alone and BIBF1120+RFP in combination. The specific operating method includes: collecting J774A.1 macrophages into a 50 ml centrifuge tube, and taking 100 μl of macrophages and 900 μl of a cell culture medium, which are added into a 1.5 ml sterile centrifuge tube for 10-fold dilution; counting under a microscope; diluting macrophages to 4*10^5/ml and gently plating the macrophages into a 48-well clear microwell plate, with 1 ml in each well; culturing in an incubator with 5% of CO2 at 37° C. for 24 h after plating; co-culturing MOI=5:1 and 2*10^6 CFU/MLH37Rv with the macrophages; rinsing 2 times with sterile PBS 4 h later to remove extracellular Mycobacterium tuberculosis, and adding a new RPMI cell culture medium; putting into an incubator with 5% of CO2 at 37° C. and culturing for 72 h. discarding RPMI in the 48-well plate 3 days later, adding 200 μl of 0.1% SDS and placing in the incubator for 5 to 10 min, and adding 800 μl of the cell culture medium into each well and mixing well; and after cell lysis, taking 100 μl from each well for 10-, 100-, 1000-, 100000-fold dilution, and inoculating 100 μl on a 7H10 solid medium, spreading it evenly with a spreader and counting CFUs three weeks later.

[3] = test system: pulmonary and splenic Mycobacterium tuberculosis (H37Rv strain); format: in vivo, C57BL/6 female mice; conditions: after 8 weeks of administration; BIBF1120 added to HRZ

| Structure (SMILES) | MIC [1] [mg/L] | bacteriostatic effect administered alone ([2]; BIBF1120 alone, 25 ug/ml) | CFU ([2]; Table 1, BIBF1120 12.5 ug/ml) | log10 CFU ([2]; Table 1, BIBF1120 12.5 ug/ml) | CFU ([2]; Table 1, BIBF1120 25 ug/ml) | log10 CFU ([2]; Table 1, BIBF1120 25 ug/ml) | CFU ([2]; Table 1, BIBF1120 50 ug/ml) | log10 CFU ([2]; Table 1, BIBF1120 50 ug/ml) | CFU ([2]; Table 2, BIBF1120 25 ug/ml) | log10 CFU ([2]; Table 2, BIBF1120 25 ug/ml) | sterilizing of the spleen and the lung [3] | CFU ([2]; Table 1, RFP 2 ug/ml) | log10 CFU ([2]; Table 1, RFP 2 ug/ml) | CFU ([2]; Table 2, RFP 2 ug/ml) | log10 CFU ([2]; Table 2, RFP 2 ug/ml) |
| --- | --- | --- | --- | --- | --- | --- | --- | --- | --- | --- | --- | --- | --- | --- | --- |
| CCS(=O)(=O)O.COC(=O)c1ccc2c(c1)NC(=O)/C2=C(\Nc1ccc(N(C)C(=O)CN2CCN(C)CC2)cc1)c1ccccc1 [BIBF1120, Nintedanib] | 24.6 | no significant bacteriostatic effect | 2400000 | 6.380 | 1462500 | 6.165 | 1077500 | 6.032 | 2750000 | 6.439 | achieves sterilizing of the spleen and the lung | – | – | – | – |
| CO[C@H]1/C=C/O[C@@]2(C)Oc3c(C)c(O)c4c(O)c(c(/C=N/N5CCN(C)CC5)c(O)c4c3C2=O)NC(=O)/C(C)=C\C=C\[C@H](C)[C@H](O)[C@@H](C)[C@@H](O)[C@@H](C)[C@H](OC(C)=O)[C@@H]1C [RFP, rifampicin] | – | – | – | – | – | – | – | – | – | – | – | 502500 | 5.701 | 202500 | 5.306 |
